Measurements from PubChem BioAssay AID330 (DTP/NCI, 2004).
Values joined by “and” are separate entries in the source; they are usually repeats but may differ in a detail not shown here. Equal values may be shown once. Toxic doses and inconclusive results are not listed. How the source made its calls: active means survival T/C of 150% or more; inactive means T/C below 125% in these data.

Tested on: P388 leukemia ip, CD2F1 mice, survival T/C
Assay: NCI In Vivo Anticancer Drug Screen. Data for tumor model P388 Leukemia (intraperitoneal) in CD2F1 (CDF1) mice
Settings: endpoint: median survival time, higher = longer survival
In short: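 Mice carrying the transplanted tumor received test compound or vehicle. Survival was recorded in each group, and the value is the treated-group measurement divided by that of the vehicle-treated control group.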

[1] = dose: 50.0 mg/kg/injection, schedule: Q01DX005 (ip), vehicle: Klucel (hydroxypropylcellulose) (HPC)
[2] = dose: 100.0 mg/kg/injection, schedule: Q01DX005 (ip), vehicle: Klucel (hydroxypropylcellulose) (HPC)
[3] = dose: 200.0 mg/kg/injection, schedule: Q01DX005 (ip), vehicle: Klucel (hydroxypropylcellulose) (HPC)
[4] = dose: 200.0 mg/kg/injection, schedule: Q01DX009 (ip), vehicle: other
[5] = dose: 25.0 mg/kg/injection, schedule: Q01DX009 (ip), vehicle: saline

Measured: T/C

Nc1nc(C2CCCCC2)c(Br)c(=O)[nH]1
inactive: [1] 97 % of control | [2] 92 % of control | [3] 92 % of control

CC(=O)Nc1ccc(S(=O)(=O)n2c(=O)oc3cc(Br)ccc32)cc1
inactive: dose: 25.0 mg/kg/injection, schedule: Q01DX005 (ip), vehicle: Klucel (hydroxypropylcellulose) (HPC) 94 % of control | [1] 87 % of control and 90 % of control | [2] 87 % of control and 90 % of control

ClCC(Br)CBr (stereo not given)
inactive: dose: 37.5 mg/kg/injection, schedule: Q01DX009 (ip), vehicle: saline with Tween-80 104 % of control | dose: 37.5 mg/kg/injection, schedule: Q04DX003 (ip), vehicle: saline with Tween-80 100 % of control | dose: 50.0 mg/kg/injection, schedule: Q01DX009 (ip), vehicle: saline sonified 105 % of control | dose: 75.0 mg/kg/injection, schedule: Q04DX003 (ip), vehicle: saline with Tween-80 90 % of control | dose: 150.0 mg/kg/injection, schedule: Q01DX009 (ip), vehicle: saline with Tween-80 104 % of control | dose: 150.0 mg/kg/injection, schedule: Q04DX003 (ip), vehicle: saline with Tween-80 95 % of control

OCCNc1cc(Cl)c(N=C2N(Cc3ccccc3)CCN2Cc2ccccc2)c(Cl)c1
inactive: [1] 102 % of control | [2] 97 % of control | [3] 100 % of control

CN1C2CCC1CC(OC(=O)/C=C/C(=O)OC1CC3CCC(C1)N3C)C2 (stereo not given)
inactive: dose: 60.0 mg/kg/injection, schedule: Q01DX005 (ip), vehicle: suspension in saline 91 % of control | dose: 120.0 mg/kg/injection, schedule: Q01DX005 (ip), vehicle: suspension in saline 91 % of control

COc1cc2cccc(O)c2cc1OC
inactive: dose: 12.5 mg/kg/injection, schedule: Q01DX009 (ip), vehicle: other 90 % of control | dose: 25.0 mg/kg/injection, schedule: Q01DX009 (ip), vehicle: other 106 % of control | dose: 50.0 mg/kg/injection, schedule: Q01DX009 (ip), vehicle: other 92 % of control | [4] 90 % of control

COC(=O)C1CC(C)N1C1CCCCC1 (stereo not given)
inactive: dose: 50.0 mg/kg/injection, schedule: Q01DX005 (ip), vehicle: saline 97 % of control | dose: 100.0 mg/kg/injection, schedule: Q01DX005 (ip), vehicle: saline 97 % of control | dose: 200.0 mg/kg/injection, schedule: Q01DX005 (ip), vehicle: saline 101 % of control

CCOC(=O)NCC(C)(C)CNC(=O)OCC
inactive: dose: 3.13 mg/kg/injection, schedule: Q01DX009 (ip), vehicle: saline 100 % of control | dose: 6.25 mg/kg/injection, schedule: Q01DX009 (ip), vehicle: saline 105 % of control | dose: 12.5 mg/kg/injection, schedule: Q01DX009 (ip), vehicle: saline 105 % of control | [5] 103 % of control

CC[C@H](C)[C@H](NC(=O)OC(C)(C)C)C(=O)ON1C(=O)CCC1=O
inactive: dose: 50.0 mg/kg/injection, schedule: Q01DX005 (ip), vehicle: saline with Tween-80 109 % of control | dose: 100.0 mg/kg/injection, schedule: Q01DX005 (ip), vehicle: saline with Tween-80 113 % of control | dose: 200.0 mg/kg/injection, schedule: Q01DX005 (ip), vehicle: saline with Tween-80 109 % of control

CCN(CC)CCCC(C)Nc1c2ccc(Cl)cc2nc2ccc(OC)cc12 (stereo not given)
inactive: dose: 3.0 mg/kg/injection, schedule: Q03HX024 (ip), vehicle: saline with Tween-80 108 % of control | dose: 4.0 mg/kg/injection, schedule: Q01DX009 (ip), vehicle: suspension in saline 104 % of control | dose: 4.0 mg/kg/injection, schedule: Q#A X018 (ip), vehicle: saline with Tween-80 97 % of control | dose: 6.0 mg/kg/injection, schedule: Q03HX024 (ip), vehicle: saline with Tween-80 93 % of control | dose: 8.0 mg/kg/injection, schedule: Q01DX009 (ip), vehicle: saline with Tween-80 104 % of control and 105 % of control | dose: 8.0 mg/kg/injection, schedule: Q01DX009 (ip), vehicle: suspension in saline 110 % of control | dose: 8.0 mg/kg/injection, schedule: Q#A X018 (ip), vehicle: saline with Tween-80 87 % of control | dose: 16.0 mg/kg/injection, schedule: Q01DX009 (ip), vehicle: saline with Tween-80 106 % of control and 120 % of control | dose: 16.0 mg/kg/injection, schedule: Q01DX009 (ip), vehicle: suspension in saline 108 % of control | dose: 16.0 mg/kg/injection, schedule: Q#A X018 (ip), vehicle: saline with Tween-80 91 % of control | dose: 20.0 mg/kg/injection, schedule: Q04DX003 (ip), vehicle: saline with Tween-80 100 % of control | dose: 24.0 mg/kg/injection, schedule: Q03HX024 (ip), vehicle: saline with Tween-80 108 % of control | dose: 24.0 mg/kg/injection, schedule: Q04DX003 (ip), vehicle: saline with Tween-80 97 % of control | dose: 32.0 mg/kg/injection, schedule: Q01DX009 (ip), vehicle: saline with Tween-80 117 % of control | dose: 32.0 mg/kg/injection, schedule: Q01DX009 (ip), vehicle: suspension in saline 113 % of control | dose: 32.0 mg/kg/injection, schedule: Q#A X018 (ip), vehicle: saline with Tween-80 104 % of control | dose: 40.0 mg/kg/injection, schedule: Q04DX003 (ip), vehicle: saline with Tween-80 100 % of control | dose: 48.0 mg/kg/injection, schedule: Q04DX003 (ip), vehicle: saline with Tween-80 97 % of control | dose: 64.0 mg/kg/injection, schedule: Q01DX009 (ip), vehicle: suspension in saline 113 % of control | dose: 71.0 mg/kg/injection, schedule: Q01DX001 (ip), vehicle: saline with Tween-80 106 % of control | dose: 80.0 mg/kg/injection, schedule: Q04DX003 (ip), vehicle: saline with Tween-80 108 % of control | dose: 96.0 mg/kg/injection, schedule: Q04DX003 (ip), vehicle: saline with Tween-80 106 % of control | dose: 128.0 mg/kg/injection, schedule: Q01DX009 (ip), vehicle: saline with Tween-80 98 % of control | dose: 128.0 mg/kg/injection, schedule: Q01DX009 (ip), vehicle: suspension in saline 91 % of control | dose: 143.0 mg/kg/injection, schedule: Q01DX001 (ip), vehicle: saline with Tween-80 113 % of control

O=c1[nH]c(=O)c2nc(-c3ccc(Cl)cc3)cnc2[nH]1
inactive: dose: 100.0 mg/kg/injection, schedule: Q04DX003 (ip), vehicle: saline with Tween-80 94 % of control | dose: 200.0 mg/kg/injection, schedule: Q04DX003 (ip), vehicle: saline with Tween-80 102 % of control | dose: 400.0 mg/kg/injection, schedule: Q04DX003 (ip), vehicle: saline with Tween-80 101 % of control

O=c1cc(-c2ccccc2)ss1
inactive: dose: 100.0 mg/kg/injection, schedule: Q01DX009 (ip), vehicle: other 110 % of control | [4] 110 % of control

CC1CCCC2CC3CCCCC3OCN12 (stereo not given)
inactive: dose: 100.0 mg/kg/injection, schedule: Q04DX003 (ip), vehicle: saline 109 % of control | dose: 200.0 mg/kg/injection, schedule: Q04DX003 (ip), vehicle: saline 104 % of control | dose: 400.0 mg/kg/injection, schedule: Q04DX003 (ip), vehicle: saline 104 % of control

O=C1C=CC(=O)C=C1
inactive: dose: 3.12 mg/kg/injection, schedule: Q04DX003 (ip), vehicle: saline with Tween-80 101 % of control | dose: 6.25 mg/kg/injection, schedule: Q04DX003 (ip), vehicle: saline with Tween-80 99 % of control

O=C1c2ccccc2CC1CS(=O)(=O)CC1Cc2ccccc2C1=O (stereo not given)
inactive: dose: 100.0 mg/kg/injection, schedule: Q04DX002 (ip), vehicle: saline 100 % of control | dose: 200.0 mg/kg/injection, schedule: Q04DX002 (ip), vehicle: saline 100 % of control | dose: 400.0 mg/kg/injection, schedule: Q04DX002 (ip), vehicle: saline 91 % of control and 96 % of control

CC(=O)CC(=O)CCC(=O)O
inactive: [5] 100 % of control | dose: 50.0 mg/kg/injection, schedule: Q01DX009 (ip), vehicle: saline 105 % of control | dose: 100.0 mg/kg/injection, schedule: Q01DX009 (ip), vehicle: saline 110 % of control | dose: 200.0 mg/kg/injection, schedule: Q01DX009 (ip), vehicle: saline 117 % of control | dose: 400.0 mg/kg/injection, schedule: Q01DX009 (ip), vehicle: saline 94 % of control

O=C1CC2CC(=O)C(S(=O)c3ccccc3)C2C1 (stereo not given)
inactive: dose: 60.0 mg/kg/injection, schedule: Q01DX005 (ip), vehicle: saline with Tween-80 96 % of control | dose: 120.0 mg/kg/injection, schedule: Q01DX005 (ip), vehicle: saline with Tween-80 99 % of control

C=CC1(C)CC(=O)C2(O)C(C)(O1)C(OC(C)=O)C(O)C1C(C)(C)CCC(O)C12C (stereo not given)
inactive: dose: 2.0 mg/kg/injection, schedule: Q01DX005 (ip), vehicle: other 99 % of control | dose: 4.0 mg/kg/injection, schedule: Q01DX005 (ip), vehicle: other 100 % of control | dose: 8.0 mg/kg/injection, schedule: Q01DX005 (ip), vehicle: other 95 % of control | dose: 16.0 mg/kg/injection, schedule: Q01DX005 (ip), vehicle: other 94 % of control
